Test [1] concerns Beet Armyworm (Spodoptera exigua, LAPHEG). In words: Bioassays on Beet Armyworm (BAW), 128-well diet tray assay. The class given is in vivo. To be noted: Spodoptera exigua. Put shortly: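 Percent larval mortality, averaged across eight wells, scored after five to seven days at 25° C. under 14:10 light-dark. Each well held one to five second instars feeding on diet dosed at 50 μg/cm^2 with compound from 90:10 acetone-water, solvent dried off.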

For test [2], the system named is Cabbage Looper (Trichoplusia ni, TRIPNI). In words: Bioassays on Cabbage Looper (CL), 128-well diet tray assay. It counts as in vivo. Particulars: Trichoplusia ni. Put shortly: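 Test molecule was dissolved in 90:10 acetone-water, applied to artificial diet at 50 μg/cm^2 and allowed to dry. Second-instar larvae were then added, one to five per well, and trays held at 25° C for five to seven days before mortality was scored and averaged.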

[3] abbreviates: Beet Armyworm, rating class, read-out: BAW.
Setting [4] is: Cabbage Looper, rating class, read-out: CL.
The mark [5] stands for this setting: Table ABC: Biological Results, species BAW, read-out: BAW.
Setting [6] is: Table ABC: Biological Results, species CL, read-out: CL.
Setting [7] is: Beet Armyworm, Table ABC / ABC-DP rating, read-out: BAW rating.
The mark [8] stands for this setting: Cabbage Looper, Table ABC / ABC-DP rating, read-out: CL rating.

Read-outs that look alike come from different tables or passages of the source.

For `CC(C)(C)OC(=O)N(C(=O)OC(C)(C)C)c1c(F)ccc(NC(=O)c2cc(NC(=O)[C@H]3[C@H](c4cc(F)cc(C(F)(F)F)c4)C3(Cl)Cl)ccc2Cl)c1F` [F1681, tert-Butyl N-tert-butoxycarbonyl-N-[3-[[2-chloro-5-[[(1R,3R)-2,2-dichloro-3-[3-fluoro-5-(trifluoromethyl)phenyl]cyclopropanecarbonyl]amino]benzoyl]amino]-2,6-difluoro-phenyl]carbamate], the pest or weed control at 50 µg/cm2 in test [1] (setting [3]) and in test [2] (setting [4]) was 50 to 100% each time.
As for `Nc1cc(F)c(NC(=O)c2cc(NC(=O)[C@H]3[C@H](c4ccc(F)c(Cl)c4)C3(Cl)Cl)ccc2Cl)c(F)c1` [F1030, N-(4-Amino-2,6-difluorophenyl)-2-chloro-5-((1R,3R)-2,2-dichloro-3-(3-chloro-4-fluorophenyl)cyclopropane-1-carboxamido)benzamide], the pest or weed control at 50 µg/cm2 in test [1] (setting [5]) and in test [2] (setting [6]) was 50 to 100% throughout.
As for `Nc1c(Cl)cc(NC(=O)c2cc(NC(=O)[C@H]3[C@H](c4ccc(F)c(Cl)c4)C3(Cl)Cl)ccc2Cl)cc1Cl` (relative stereo) [F1367, trans-N-(4-Amino-3,5-dichlorophenyl)-2-chloro-5-(2,2-dichloro-3-(3-chloro-4-fluorophenyl)cyclopropane-1-carboxamido)benzamide], the pest or weed control at 50 µg/cm2 in test [1] (setting [5]) and in test [2] (setting [6]) was 50 to 100% in each case.
Take `Nc1cc(NC(=O)c2cc(NC(=O)[C@H]3[C@H](c4cc(Cl)cc(Cl)c4)C3(Cl)Cl)cc(F)c2Cl)c(F)cc1F` [F1399, N-(5-Amino-2,4-difluorophenyl)-2-chloro-5-((1R,3R)-2,2-dichloro-3-(3,5-dichlorophenyl)cyclopropane-1-carboxamido)-3-fluorobenzamide]: the pest or weed control at 50 µg/cm2 in test [1] (setting [3]) and in test [2] (setting [4]) was 50 to 100% each time.
For the molecule `Nc1cc(F)c(F)cc1NC(=O)c1cc(NC(=O)[C@H]2[C@H](c3ccc(F)c(Cl)c3)C2(Cl)Cl)ccc1Cl` [F1134, N-(2-Amino-4,5-difluorophenyl)-2-chloro-5-((1R,3R)-2,2-dichloro-3-(3-chloro-4-fluorophenyl)cyclopropane-1-carboxamido)benzamide], the pest or weed control at 50 µg/cm2 in test [1] (setting [5]) and in test [2] (setting [6]) was 50 to 100% in each case.
For `O=C(Nc1ccc(F)c(NC(=O)C(F)F)c1F)c1cc(NC(=O)[C@H]2[C@H](c3ccc(Cl)c(Cl)c3)C2(Cl)Cl)cc(F)c1Cl` [F1287, 2-Chloro-5-((1R,3R)-2,2-dichloro-3-(3,4-dichlorophenyl)cyclopropane-1-carboxamido)-N-(3-(2,2-difluoroacetamido)-2,4-difluorophenyl)-3-fluorobenzamide], the pest or weed control at 50 µg/cm2 in test [1] (setting [5]) and in test [2] (setting [6]) was 50 to 100% in each case.
For the molecule `O=C(Nc1ccc(F)c(NC(=O)C(F)F)c1F)c1cc(NC(=O)[C@H]2[C@H](c3ccc(Cl)c(Br)c3)C2(Cl)Cl)ccc1Cl` [F1411, 5-((1R,3R)-3-(3-Bromo-4-chlorophenyl)-2,2-dichlorocyclopropane-1-carboxamido)-2-chloro-N-(3-(2,2-difluoroacetamido)-2,4-difluorophenyl)benzamide], the pest or weed control at 50 µg/cm2 in test [1] (setting [3]) and in test [2] (setting [4]) was 50 to 100% throughout.
`Nc1c(F)ccc(NC(=O)c2cc(NC(=O)[C@H]3[C@H](c4ccc(Cl)c(C(F)(F)F)c4)C3(Cl)Cl)ccc2Cl)c1F` [F1631, N-(3-Amino-2,4-difluorophenyl)-2-chloro-5-((1R,3R)-2,2-dichloro-3-(4-chloro-3-(trifluoromethyl)phenyl)cyclopropane-1-carboxamido)benzamide]: the pest or weed control at 50 µg/cm2 in test [1] (setting [3]) and in test [2] (setting [4]) was 50 to 100% throughout.
As for `O=C(NCC(F)(F)F)c1cc(NC(=O)[C@H]2[C@H](c3ccc(F)c(Cl)c3)C2(Cl)Cl)cc(Cl)c1F` (relative stereo) [F2045, trans-3-Chloro-5-(2,2-dichloro-3-(3-chloro-4-fluorophenyl)cyclopropane-1-carboxamido)-2-fluoro-N-(2,2,2-trifluoroethyl)benzamide], the pest or weed control at 50 µg/cm2 in test [1] (setting [7]) and in test [2] (setting [8]) was 50 to 100% each time.
`O=C(Nc1ccc(F)cc1F)c1cc(NC(=O)[C@H]2[C@@H](c3cc(Cl)c(Cl)c(C(F)(F)F)c3)C2(Cl)Cl)ccc1Cl` (relative stereo) [F1148, cis-2-Chloro-5-(2,2-dichloro-3-(3,4-dichloro-5-(trifluoromethyl)phenyl)cyclopropane-1-carboxamido)-N-(2,4-difluorophenyl)benzamide]: the pest or weed control at 50 µg/cm2 in test [1] (setting [5]) and in test [2] (setting [6]) was 50 to 100% in each case.
For `O=C(Nc1ccc(F)c(NC(=O)C2CCCOC2)c1F)c1cc(NC(=O)[C@H]2[C@H](c3ccc(F)c(C(F)(F)F)c3)C2(Cl)Cl)ccc1Cl` (stereo partly drawn) [F1722, N-(3-(2-Chloro-5-((1R,3R)-2,2-dichloro-3-(4-fluoro-3-(trifluoromethyl)phenyl)cyclopropane-1-carboxamido)benzamido)-2,6-difluorophenyl)tetrahydro-2H-pyran-3-carboxamide], the pest or weed control at 50 µg/cm2 in test [1] (setting [3]) and in test [2] (setting [4]) was 50 to 100% throughout.
Turning to `O=C(Nc1ccc(F)c(NC(=O)C(F)(F)C(F)(F)C(F)(F)F)c1F)c1cc(NC(=O)[C@H]2[C@H](c3ccc(Cl)c(Cl)c3)C2(Cl)Cl)ccc1Cl` [F1463, 2-Chloro-5-((1R,3R)-2,2-dichloro-3-(3,4-dichlorophenyl)cyclopropane-1-carboxamido)-N-(2,4-difluoro-3-(2,2,3,3,4,4,4-heptafluorobutanamido)phenyl)benzamide], the pest or weed control at 50 µg/cm2 in test [1] (setting [3]) and in test [2] (setting [4]) was 50 to 100% each time.
For `Cc1cc(NC(=O)[C@H]2[C@H](c3ccc(F)c(C(F)(F)F)c3)C2(Cl)Cl)cc(C(=O)Nc2cc(NC(=O)C(F)F)c(F)cc2F)c1Cl` [F1500, 2-Chloro-5-((1R,3R)-2,2-dichloro-3-(4-fluoro-3-(trifluoromethyl)phenyl)cyclopropane-1-carboxamido)-N-(5-(2,2-difluoroacetamido)-2,4-difluorophenyl)-3-methylbenzamide], the pest or weed control at 50 µg/cm2 in test [1] (setting [3]) and in test [2] (setting [4]) was 50 to 100% in each case.
As for `O=C(Nc1ccc(F)c(O)c1F)c1cc(NC(=O)[C@H]2[C@H](c3cc(Cl)cc(Cl)c3)C2(Cl)Cl)ccc1Cl` (relative stereo) [F1203, trans-2-chloro-5-(2,2-dichloro-3-(3,5-dichlorophenyl)cyclopropane-1-carboxamido)-N-(2,4-difluoro-3-hydroxyphenyl)benzamide], the pest or weed control at 50 µg/cm2 in test [1] (setting [5]) is 0 to 50%; in test [2] (setting [6]), 50 to 100%.
On to `O=C(Nc1c(F)cc(F)cc1F)c1cc(NC(=O)[C@@H]2[C@@H](c3cc(Cl)cc(Cl)c3)C2(Cl)Cl)ccc1Cl` (single isomer, unassigned) [F1378], for which the pest or weed control at 50 µg/cm2 in test [1] (setting [5]) is 0 to 50%; in test [2] (setting [6]), 50 to 100%.
With `COc1c(Cl)cc(NC(=O)[C@H]2[C@H](c3ccc(F)c(Cl)c3)C2(Cl)Cl)cc1C(=O)Nc1ccc(F)cc1` (relative stereo) [F1235, trans-3-Chloro-5-(2,2-dichloro-3-(3-chloro-4-fluorophenyl)cyclopropane-1-carboxamido)-N-(4-fluorophenyl)-2-methoxybenzamide], the pest or weed control at 50 µg/cm2 in test [1] (setting [5]) and in test [2] (setting [6]) was 50 to 100% throughout.
Take `O=C(Nc1ccc(F)c(NC(=O)C(F)F)c1F)c1cc(NC(=O)[C@H]2[C@H](c3cc(Cl)c(Cl)c(Br)c3)C2(Cl)Cl)ccc1Cl` (relative stereo) [F1623, trans-5-(3-(3-Bromo-4,5-dichlorophenyl)-2,2-dichlorocyclopropane-1-carboxamido)-2-chloro-N-(3-(2,2-difluoroacetamido)-2,4-difluorophenyl)benzamide]: the pest or weed control at 50 µg/cm2 in test [1] (setting [3]) and in test [2] (setting [4]) was 50 to 100% each time.
`Cc1cc(NCCO)ccc1NC(=O)c1cc(NC(=O)[C@H]2[C@H](c3ccc(F)c(C(F)(F)F)c3)C2(Cl)Cl)ccc1Cl` [F1145, 2-Chloro-5-((1R,3R)-2,2-dichloro-3-(4-fluoro-3-(trifluoromethyl)phenyl)cyclopropane-1-carboxamido)-N-(4-((2-hydroxyethyl)amino)-2-methylphenyl)benzamide]: the pest or weed control at 50 µg/cm2 in test [1] (setting [5]) and in test [2] (setting [6]) was 50 to 100% in each case.
With `O=C(Nc1ccc(F)c(NC(=O)C(F)F)c1F)c1cc(NC(=O)[C@H]2[C@H](c3ccc(Cl)c(Cl)c3)C2(Cl)Cl)ccc1F` [F1491, 5-((1R,3R)-2,2-Dichloro-3-(3,4-dichlorophenyl)cyclopropane-1-carboxamido)-N-(3-(2,2-difluoroacetamido)-2,4-difluorophenyl)-2-fluorobenzamide], the pest or weed control at 50 µg/cm2 in test [1] (setting [3]) and in test [2] (setting [4]) was 50 to 100% throughout.
For the molecule `C=CC(=O)Nc1c(F)ccc(NC(=O)c2cc(NC(=O)[C@H]3[C@H](c4ccc(F)c(C(F)(F)F)c4)C3(Cl)Cl)ccc2Cl)c1F` [F1877, N-(3-Acrylamido-2,4-difluorophenyl)-2-chloro-5-((1R,3R)-2,2-dichloro-3-(4-fluoro-3-(trifluoromethyl)phenyl)cyclopropane-1-carboxamido)benzamide], the pest or weed control at 50 µg/cm2 in test [1] (setting [7]) and in test [2] (setting [8]) was 50 to 100% throughout.

The values are drawn from US20250228239A1, “MOLECULES HAVING PESTICIDAL UTILITY, AND INTERMEDIATES, COMPOSITIONS, AND PROCESSES, RELATED THERETO” (priority 2024, published 2025).
